Test results reported in patent publication US6207399A, “Methods of determining endogenous thrombin potential (ETP) and thrombin substrates for use in said methods” (Hemker; Hendrik Coenraad, priority 1995, dated 2001).
Square brackets hold non-standard residues; d marks the D form. Peptide text beside a SMILES is read from it. * marks the point of attachment. pNA = O=[N+]([O-])c1ccc(N*)cc1; Tos = Cc1ccc(S(=O)(=O)*)cc1; Pip = O=C(O)[C@@H]1CCCCN1; Nle = CCCC[C@H](N)C(=O)O; Orn = NCCC[C@H](N)C(=O)O

What was measured:
Type in all cases: biochemical
thrombin = thrombin (Homo sapiens, UniProt P00734); assay: Kinetic parameters of hydrolysis of the substrates by thrombin in buffer A at 37° C. (Example 4, Table 3); design: Pure human α-thrombin; gift of Dr. T. Lindhout (University of Limburg, Maastricht); settings: buffer A, 37° C.
Protocol: (§1) Kinetic parameters: The hydrolysis experiments were run in buffer A at 37° C. The liberation of p-nitroaniline was monitored at 405 nm in a dual wavelength (405-546 nm) spectrophotometer made in our workshop, using a personal computer for data recording. In a polystyrene microcuvette (total volume 500 μL), buffer A and substrate solution were added to obtain a final substrate concentration between 200 to 2000 μM. After 5 min of incubation at 37° C., enzyme solution was added to achieve a final concentration between 0.5 to 50 nM. The measurement was carried out at 37° C. in a thermostated cuvette-holder. The Michaelis constant (Km) and the catalytic constant (kcat) were obtained by measuring the initial reaction velocities at different substrate concentrations. The data obtained were fitted by linear regression on the Michaelis-Menten equation.
(§2) Kinetic parameters: The Km and kcat values for each substrate were determined at an enzyme concentration of 0.5-50 nM (thrombin) and 50 nM factor Xa. From the initial reaction velocities, measured for at least six substrate concentrations between 200 and 2000 μM, the Km and kcat values were calculated by linear regression on the Michaelis-Menten curve. Table 3 gives an overview of the kinetic parameters of the different substrates hydrolyzed by thrombin and by factor Xa in buffer A.

factor Xa [1] = target: T1, factor Xa (Homo sapiens, UniProt P00742); assay: Kinetic parameters of hydrolysis of the substrates by factor Xa in buffer A at 37° C. (Example 4, Table 3); settings: buffer A, 37° C., 50 nM factor Xa
T1 construct: human factor Xa samples; gift of Dr. T. Lindhout (University of Limburg, Maastricht)
Protocol: as §1, §2

human α-thrombin = target: T2, human α-thrombin (Homo sapiens, UniProt P00734); assay: Kinetics of hydrolysis of substrates by human α-thrombin in buffer A at 37° C. (Example 2, Table 1); design: key to kcat: NH: not hydrolyzed by thrombin
T2 construct: Pure human α-thrombin; gift of Dr. T. Lindhout (University of Limburg, Maastricht)
Protocol: as §1, with “between 1” for “between 200”, “to 100” for “to 50”, “measuring” for “measuring the”
(§3) Kinetic parameters: In a preliminary experiment, the substrate was hydrolyzed under the following conditions: enzyme concentration: 10 to 20 nM, substrate concentration: 200 μM in buffer A to get an impression of the initial velocity. […] The results are given in table 1 and 2 for thrombin and factor Xa respectively. The Km and kcat for each substrate were determined from the initial velocities measured for at least six substrate concentrations in the concentration range as given. The enzyme concentration used gives a good signal to noise ratio. The data given are obtained from one or two experiments. The data from table 1 and 2 were only used as the first selection criterion to get a rough impression of the hydrolysis behaviour. Notwithstanding the preliminary character of the measurement it was helpful in the design of the substrates of our interest.

factor Xa [2] = target: T1, factor Xa; assay: Kinetics of hydrolysis of substrates by human factor Xa in buffer A at 37° C. (Example 2, Table 2); design: key to kcat: NH: not hydrolyzed by factor Xa
Protocol: as §1, with “between 1” for “between 200”, “to 100” for “to 50”, “measuring” for “measuring the”
as §3

T1 sequence (P00742 41-179 limits assumed): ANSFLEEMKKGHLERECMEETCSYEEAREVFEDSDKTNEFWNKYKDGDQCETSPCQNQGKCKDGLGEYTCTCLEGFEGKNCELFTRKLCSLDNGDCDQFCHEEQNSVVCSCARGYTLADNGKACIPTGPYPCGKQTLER
T1 sequence (P00742 235-488 limits assumed): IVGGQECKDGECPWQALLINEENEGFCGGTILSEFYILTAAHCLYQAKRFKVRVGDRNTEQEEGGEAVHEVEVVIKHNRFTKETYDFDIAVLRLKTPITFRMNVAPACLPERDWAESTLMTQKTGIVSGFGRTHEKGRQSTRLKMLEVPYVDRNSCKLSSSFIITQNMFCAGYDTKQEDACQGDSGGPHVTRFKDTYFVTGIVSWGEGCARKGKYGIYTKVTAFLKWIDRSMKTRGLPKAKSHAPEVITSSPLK

Row | Km (human α-thrombin) [µM] | kcat (human α-thrombin) | kcat /Km (human α-thrombin) [M/s] | Km (factor Xa [2]) [mM] | kcat (factor Xa [2]) | kcat /Km (factor Xa [2]) [M/s] | Structure (SMILES) | Km (thrombin) [mM] | Thrombin kcat (thrombin) [s⁻¹] | Thrombin kcat /Km (thrombin) [M/s] | Factor Xa kcat (factor Xa [1]) [s⁻¹] | Factor Xa kcat /Km (factor Xa [1]) [M/s] | Km (factor Xa [1]) [mM]
1 | 1740 | 6.60 s⁻¹ | 3800 | 6.4 | 43.9 s⁻¹ | 6860 | COC(=O)C(C)C(=O)NCC(=O)NC(CCCNC(=N)N)C(=O)Nc1ccc([N+](=O)[O-])cc1.Cl (mixture of isomers) [MMZ-Gly-Arg-pNA.HCl] | – | – | – | – | – | –
2 | 87.9 | 6.66 s⁻¹ | 75400 | – | – | – | CCCC[C@H](NC(=O)[C@@H]1CCCN1C(=O)[C@H](N)Cc1ccccc1)C(=O)Nc1ccc([N+](=O)[O-])cc1.Cl [HCl.H-D-Phe-Pro-Nle-pNA] (H-[dF]-Pro-[Nle]-pNA) | – | – | – | – | – | –
3 | 1540 | 107.5 s⁻¹ | 69900 | 5.59 | 51.7 s⁻¹ | 9250 | COC(=O)CC(=O)N[C@@H](C)C(=O)N[C@@H](CCCNC(=N)N)C(=O)Nc1ccc([N+](=O)[O-])cc1.Cl [MZ-Ala-Arg-pNA.HCl] | – | – | – | – | – | –
4 | – | NH | – | 0.116 | 2.00 s⁻¹ | 17300 | Cl.N=C(N)NCCC[C@H](NC(=O)CNS(=O)(=O)c1ccc2ccccc2c1)C(=O)Nc1ccc([N+](=O)[O-])cc1 [βNS-Gly-Arg-pNA.HCl] | – | – | – | – | – | –
5 | 943 | 11.4 s⁻¹ | 12100 | – | NH | – | CCCC[C@H](NC(=O)[C@@H]1CCCCN1C(=O)[C@H](N)Cc1ccccc1)C(=O)Nc1ccc([N+](=O)[O-])cc1.Cl [HCl.H-D-Phe-Pip-Nle-pNA] (H-[dF]-[Pip]-[Nle]-pNA) | – | – | – | – | – | –
6 | 1310 | 0.146 s⁻¹ | 111 | 1.82 | 0.13 s⁻¹ | 69.5 | COC(=O)CC(=O)N[C@@H](C(=O)N[C@@H](CCCNC(=N)N)C(=O)Nc1ccc([N+](=O)[O-])cc1)C(C)C.Cl [MZ-D-Val-Arg-pNA.HCl] | – | – | – | – | – | –
7 | 1330 | 0.059 s⁻¹ | 44.4 | 3.08 | 0.088 s⁻¹ | 28.5 | COC(=O)CC(=O)N[C@H](C)C(=O)N[C@@H](CCCNC(=N)N)C(=O)Nc1ccc([N+](=O)[O-])cc1.Cl [MZ-D-Ala-Arg-pNA.HCl] | – | – | – | – | – | –
8 | 666 | 16.5 s⁻¹ | 24800 | 7.05 | 40.6 s⁻¹ | 5750 | COC(=O)C(C)C(=O)NC(C)C(=O)NC(CCCNC(=N)N)C(=O)Nc1ccc([N+](=O)[O-])cc1.Cl (mixture of isomers) [MMZ-Ala-Arg-pNA.HCl] | – | – | – | – | – | –
9 | 2540 | 12.3 s⁻¹ | 4850 | 4.7 | 55.0 s⁻¹ | 11700 | COc1ccc(COC(=O)NCC(=O)N[C@@H](CCCNC(=N)N)C(=O)Nc2ccc([N+](=O)[O-])cc2)cc1.Cl [MZ-Gly-Arg-pNA.HCl] | – | – | – | – | – | –
10 | – | NH | – | 0.233 | 9.26 s⁻¹ | 39800 | Cc1ccc(S(=O)(=O)NCC(=O)N[C@@H](CCCNC(=N)N)C(=O)Nc2ccc([N+](=O)[O-])cc2)cc1.Cl [pTS-Gly-Arg-pNA.HCl] (Tos-Gly-Arg-pNA) | – | – | – | – | – | –

The next lines start with the compound.

Row | Structure (SMILES) | Km (human α-thrombin) [µM] | kcat (human α-thrombin) | kcat /Km (human α-thrombin) [M/s] | Km (factor Xa [2]) [mM] | kcat (factor Xa [2]) | kcat /Km (factor Xa [2]) [M/s] | Km (thrombin) [mM] | Thrombin kcat (thrombin) [s⁻¹] | Thrombin kcat /Km (thrombin) [M/s] | Factor Xa kcat (factor Xa [1]) [s⁻¹] | Factor Xa kcat /Km (factor Xa [1]) [M/s] | Km (factor Xa [1]) [mM]
11 | CC(C)[C@H](NC(=O)CNC(=O)[C@@H]1CCCN1C(=O)CNC(=O)[C@@H](N)CCC(=O)O)C(=O)N[C@@H](CCCNC(=N)N)C(=O)Nc1ccc([N+](=O)[O-])cc1 [2HCl.H-EGPGVR-pNA, 2HCl.H-Glu-Gly-Pro-Gly-Val-Arg-pNA] (H-EGPGVR-pNA) | – | – | – | – | – | – | 1.07 | 9.07 | 8440 | 3.41 | 1560 | 2.19
12 | Cl.Cl.NCCCC[C@H](NC(=O)[C@@H]1CCCCN1C(=O)[C@H](N)Cc1ccccc1)C(=O)Nc1ccc([N+](=O)[O-])cc1 [2HCl.H-D-Phe-Pip-Lys-pNA] (H-[dF]-[Pip]-Lys-pNA) | 65.1 | 118.3 s⁻¹ | 1.82e+06 | 0.963 | 0.61 s⁻¹ | 631 | – | – | – | – | – | –
13 | COC(=O)C(C)(C)C(=O)NCC(=O)N[C@@H](CCCNC(=N)N)C(=O)Nc1ccc([N+](=O)[O-])cc1.Cl [DMMZ-Gly-Arg-pNA.HCl] | 902 | 6.44 s⁻¹ | 7140 | 2.84 | 13.6 s⁻¹ | 4790 | – | – | – | – | – | –
14 | Cl.Cl.NCC(=O)N[C@@H](CCCN=C(N)N)C(=O)Nc1ccc([N+](=O)[O-])cc1 [2HCl.H-Gly-Arg-pNA] (H-Gly-Arg-pNA) | 2280 | 0.107 s⁻¹ | 46.9 | – | – | – | – | – | – | – | – | –
15 | Cl.Cl.N=C(N)NCCC[C@H](NC(=O)[C@@H]1CCCN1C(=O)[C@H](N)Cc1ccccc1)C(=O)Nc1ccc([N+](=O)[O-])cc1 [2HCl.H-D-Phe-Pro-Arg-pNA] | 3.16 | 28.4 s⁻¹ | 8.99e+06 | 0.693 | 18.7 s⁻¹ | 26900 | – | – | – | – | – | –
16 | NC(N)=NCCC[C@H](NC(=O)[C@@H]1CCCCN1C(=O)[C@H](N)Cc1ccccc1)C(=O)Nc1ccc([N+](=O)[O-])cc1 [2HCl.H-D-Phe-Pip-Arg-pNA] | 5.62 | 236.5 s⁻¹ | 4.21e+07 | 0.174 | 7.49 s⁻¹ | 42900 | – | – | – | – | – | –
17 | CC(C)[C@@H](N)C(=O)N[C@@H](CCCNC(=N)N)C(=O)Nc1ccc([N+](=O)[O-])cc1.Cl.Cl [2HCl.H-D-Val-Arg-pNA] (H-[dV]-Arg-pNA) | 4250 | 0.28 s⁻¹ | 65.9 | – | – | – | – | – | – | – | – | –
18 | C[C@@H](N)C(=O)N[C@@H](CCCNC(=N)N)C(=O)Nc1ccc([N+](=O)[O-])cc1.Cl.Cl [2HCl.H-D-Ala-Arg-pNA] (H-[dA]-Arg-pNA) | 4080 | 0.096 s⁻¹ | 23.5 | – | – | – | – | – | – | – | – | –
19 | C[C@H](N)C(=O)N[C@@H](CCCNC(=N)N)C(=O)Nc1ccc([N+](=O)[O-])cc1.Cl.Cl [2HCl.H-Ala-Arg-pNA] (H-Ala-Arg-pNA) | 1140 | 0.074 s⁻¹ | 64.9 | – | – | – | – | – | – | – | – | –
20 | CCC(CC)(C(=O)NCC(=O)N[C@@H](CCCNC(=N)N)C(=O)Nc1ccc([N+](=O)[O-])cc1)C(=O)OC.Cl [DEMZ-Gly-Arg-pNA.HCl] | 866 | 1.73 s⁻¹ | 1990 | 2.32 | 4.54 s⁻¹ | 1960 | – | – | – | – | – | –
21 | COC(=O)C(C)(C)C(=O)N[C@@H](C)C(=O)N[C@@H](CCCNC(=N)N)C(=O)Nc1ccc([N+](=O)[O-])cc1.Cl [DMMZ-Ala-Arg-pNA.HCl] | 565 | 4.08 s⁻¹ | 7220 | 2.24 | 11.04 s⁻¹ | 4930 | – | – | – | – | – | –
22 | Cl.Cl.NCCC[C@H](NC(=O)[C@@H]1CCCCN1C(=O)[C@H](N)Cc1ccccc1)C(=O)Nc1ccc([N+](=O)[O-])cc1 [2HCl.H-D-Phe-Pip-Orn-pNA] (H-[dF]-[Pip]-[Orn]-pNA) | 420 | 4.64 s⁻¹ | 11100 | – | – | – | – | – | – | – | – | –
23 | Cl.N[C@H](Cc1ccccc1)C(=O)N1CCCC[C@H]1C(=O)N[C@@H](CCC(=O)O)C(=O)Nc1ccc([N+](=O)[O-])cc1 [HCl.H-D-Phe-Pip-Glu-pNA] (H-[dF]-[Pip]-Glu-pNA) | 474 | 0.35 s⁻¹ | 739 | – | NH | – | – | – | – | – | – | –
